These results are taken from patent US4220577A, “Iodopropargyl pyridyl and picolinyl ethers and thioethers as paint fungicides” (Givaudan Corporation, priority 1979, dated 1980).

One experiment concerns mildew. Description: Outdoor field test of painted pine panels. Particulars: .5%. An excerpt: A number of the compounds were field tested in various latex paints. Pine panels (6"×12"×1/2") were given two coats of paint and, after drying, were exposed at an outdoor location subject to high heat and humidity levels. Paints containing the novel componds of this invention were compared with those containing the commercial mecurial mildewcide phenyl mecuric acetate (PMA), a commercial non-mercurial mildewcide 2-n-octyl-4-isothiazolin-3-one and 3-iodo-2-propynyloxybenzene.

The test system of a further experiment is Aspergillus oryzae. The experiment can be described thus: 5-fold serial dilution test in agar, MIC, F2. The following applies: 168 h, 28° C., seven days, read-out: Minimum Inhibitory Concentration Range. The class given is cell-based. How it is done: (§1) Antibacterial and antifungal activity were evaluated by a 5-fold serial dilution test in agar. In this test, compounds were prepared as 6% solutions in dimethylformamide or ethanol. The 6% solution was then 5-fold serially diluted in test tubes to give the desired concentrations when mixed with agar and poured into sterile Petri dishes. Trypticase glucose extract agar was used for the bacterial testing; mildew glucose agar for the fungal testing. The bacterial plates were spot inoculated with 24-hour nutrient broth cultures and incubated at 37° C. for 48 hours. The fungal plates were spot inoculated with spore suspensions and incubated at 28° C. for seven days. At the end of the incubation periods, all plates were examined for growth. The minimum inhibitory concentration (MIC) for each organism is expressed in Table I. In the ranges presented, growth is observed only at the lower concentration.

The next experiment has as its system Aureobasidium pullulans. Description: 5-fold serial dilution test in agar, MIC, F4. It counts as cell-based. Particulars: 168 h, 28° C., seven days, read-out: Minimum Inhibitory Concentration Range. How it is done: as §1
F4 Aureobasidium pullulans

For the next experiment, the system named is Proteus vulgaris. Description: 5-fold serial dilution test in agar, MIC, B4. The class given is cell-based. The following applies: 37° C., 48 hours, read-out: Minimum Inhibitory Concentration Range. How it is done:
as §1

Another experiment concerns Aspergillus niger. Description: 5-fold serial dilution test in agar, MIC, F1. The following applies: 168 h, 28° C., seven days, read-out: Minimum Inhibitory Concentration Range. The class given is cell-based. On the procedure:
as §1

Another experiment deals with Penicillium piscarium. The experiment can be described thus: 5-fold serial dilution test in agar, MIC, F3. The class given is cell-based. Particulars: 168 h, 28° C., seven days, read-out: Minimum Inhibitory Concentration Range. On the procedure:
as §1
F3 Penicillium piscarium

The test system of a further experiment is Escherichia coli. Description: 5-fold serial dilution test in agar, MIC, B2. The class given is cell-based. Particulars: 37° C., 48 hours, read-out: Minimum Inhibitory Concentration Range. On the procedure:
as §1

For a further experiment, the system named is Bacillus subtilis. Description: 5-fold serial dilution test in agar, MIC, B5. The class given is cell-based. Particulars: 37° C., 48 hours, read-out: Minimum Inhibitory Concentration Range. How it is done: as §1
B5 Bacillus subtilis 4 3 μg/ml

Another experiment relates to Staphylococcus aureus. Description: 5-fold serial dilution test in agar, MIC, B1. It counts as cell-based. Particulars: 37° C., 48 hours, read-out: Minimum Inhibitory Concentration Range. How it is done:
as §1
B1 Staphylococcus aureus

In the next experiment the test system is Pseudomonas aeruginosa. Description: 5-fold serial dilution test in agar, MIC, B3. The class given is cell-based. The following applies: 37° C., 48 hours, read-out: Minimum Inhibitory Concentration Range. How it is done:
as §1
B3 Pseudomonas aeruginosa

≈ marks a conversion by molar mass, not a printed value.

For `IC#CCOc1cccnc1` [Compound 1, 3-(3-iodo-2-propynyloxy)pyridine], the “Panel Scoring” value in the experiment with mildew (Paint B (Acrylic latex-alkyd modified), month 5) stood at 8; with mildew (Paint B (Acrylic latex-alkyd modified), month 6) it was 8.

For the compound `CCCCCCCCn1sccc1=O` [II, 2-n-octyl-4-isothiazolin-3-one, reference compound], the “Panel Scoring” value with mildew (Paint A (Vinyl acetate latex), month 4) came out at 8.

As for `IC#CCSc1ccncc1` [drawing 10], the MIC in the experiment on Aspergillus oryzae was 0.12 to 0.6 µg/mL (≈ 0.436 to 2.18 µM); in the experiment with Aureobasidium pullulans it was 0.12 to 0.6 µg/mL (≈ 0.436 to 2.18 µM); in the experiment on Proteus vulgaris, 384 to 1920 µg/mL (≈ 1400 to 6980 µM); with Aspergillus niger, less than 0.03 µg/mL; in the experiment with Penicillium piscarium, 0.12 to 0.6 µg/mL (≈ 0.436 to 2.18 µM); in the experiment on Escherichia coli, greater than 1920 µg/mL. Moreover, the figures for the MIC in the experiment on Bacillus subtilis, in the experiment on Staphylococcus aureus and in the experiment with Pseudomonas aeruginosa were 76 to 384 µg/mL (≈ 276 to 1400 µM), 384 to 1920 µg/mL (≈ 1400 to 6980 µM) and greater than 1920 µg/mL, respectively.
